Target: T1, CaCC (Ca^2+-activated chloride channels) in NCL-SG3-hsYFP cells (Homo sapiens, UniProt Q5XXA6)
T1 sequence (Q5XXA6 1-986): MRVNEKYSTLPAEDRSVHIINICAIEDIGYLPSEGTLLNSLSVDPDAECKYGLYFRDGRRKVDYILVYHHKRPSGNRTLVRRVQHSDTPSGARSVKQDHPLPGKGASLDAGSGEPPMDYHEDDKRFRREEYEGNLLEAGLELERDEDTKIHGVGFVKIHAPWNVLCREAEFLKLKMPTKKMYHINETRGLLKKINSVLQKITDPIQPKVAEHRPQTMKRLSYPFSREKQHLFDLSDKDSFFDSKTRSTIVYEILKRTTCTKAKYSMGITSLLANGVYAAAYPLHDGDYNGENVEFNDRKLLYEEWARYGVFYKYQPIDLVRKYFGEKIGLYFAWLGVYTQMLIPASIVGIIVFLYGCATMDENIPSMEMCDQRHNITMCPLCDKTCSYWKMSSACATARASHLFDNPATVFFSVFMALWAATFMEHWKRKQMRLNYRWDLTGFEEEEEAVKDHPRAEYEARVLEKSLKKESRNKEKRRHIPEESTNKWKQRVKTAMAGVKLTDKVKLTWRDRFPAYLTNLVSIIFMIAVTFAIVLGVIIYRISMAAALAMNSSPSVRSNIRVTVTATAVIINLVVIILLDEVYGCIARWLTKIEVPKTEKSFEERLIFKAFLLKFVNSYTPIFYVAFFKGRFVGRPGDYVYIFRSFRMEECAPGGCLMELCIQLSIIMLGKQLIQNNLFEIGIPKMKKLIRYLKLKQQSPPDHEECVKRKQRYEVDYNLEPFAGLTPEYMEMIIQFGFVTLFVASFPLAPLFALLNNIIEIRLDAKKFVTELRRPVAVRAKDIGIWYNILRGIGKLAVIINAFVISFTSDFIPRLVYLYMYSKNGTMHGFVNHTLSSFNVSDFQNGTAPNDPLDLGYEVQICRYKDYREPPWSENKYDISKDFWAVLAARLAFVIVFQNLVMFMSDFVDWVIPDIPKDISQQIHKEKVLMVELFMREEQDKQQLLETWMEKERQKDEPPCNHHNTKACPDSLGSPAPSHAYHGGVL
Assay: hsYFP fluorescence quenching (Cl^− efflux/I^− influx) assay in NCL-SG3-hsYFP CaCC activity sensor cells
Assay type: cell-based
Method: The halide inside the cell functionally interacts with the halide-sensitive cytoplasmic indicator protein, which leads to a quenching of the signal provided by the halide-sensitive cytoplasmic indicator protein. The more halide (such as e.g. iodide) flows into the cell, the weaker the signal emitted by the halide-sensitive cytoplasmic indicator protein becomes. This alteration of the signal emitted by the halide-sensitive cytoplasmic indicator protein is determined in a third step of the method of the invention. Due to the fact that the influx of halide into the cell is proportional to the efflux of chloride ions, the halide influx is used as a direct measure for chloride secretion. To determine the amount of chloride secretion, the fluorescence decrease is plotted against time (Δfluorescence/Δtime) and the initial slope of the resulting graph represents the iodide influx rate (sec^−1), which in turn is directly proportional to the chloride efflux rate, representing the amount of chloride secretion per time. In a fourth step, this amount of chloride secretion determined in the presence of a test compound is compared to the amount of chloride secretion determined in the absence of a said compound.
Effect of CaCC inhibitors on sweat gland-specific Ca^2+-dependent […] and proportional I^− influx was determined using NCL-SG3-hsYFP cells. Quenching of intracellular hsYFP fluorescence was measured and plotted over time. Exemplary raw data (B) and fitted curves are shown (A). NCL-SG3-hsYFP cells were incubated with 50 μM tannic acid (TA), 25 μM niflumic acid (NFA), 25 μM 5-nitro-2-(3-phenylpropyl-amino) benzoic acid (NPPB), 100 μM epigallocatechin-3-gallate (EGCG) for 15 min and then stimulated with 330 μM ATP.
Sweat gland-specific Ca^2+-dependent Cl^− efflux and a proportional I^− influx was determined using NCL-SG3-hsYFP cells. Quenching of intracellular hsYFP fluorescence was measured and plotted over time. Exemplary fitted curves are shown. NCL-SG3-hsYFP cells were incubated with increasing concentrations of tannic acid (TA) and then stimulated with 330 μM ATP. […] NCL-SG3-hsYFP cells were incubated with increasing concentrations of CaCC inhibitors and quenching of intracellular hsYFP fluorescence was measured after stimulation with ATP. The rate of […] (sec^−1), which is proportional to Ca^2+-dependent […] was calculated from the initial slope of the measured hsYFP fluorescence (ΔYFP fluorescence/Δtime) and is a direct measure of CaCC activity. IC50 values were determined by plotting the percentage of residual CaCC activity against the individual inhibitor concentration.
NCL-SG3-hsYFP cells were routinely cultivated in Williams' Medium E supplemented with 9% Fetal Calf Serum, 3.5 mM Glutamine, 9 ng/μl Hydrocortisone, Insulin-Transferrin-Selenium-Supplement (PAA Laboratories) at 37° C. and 5% CO2. For microplate assays, 20,000 cells were seeded in 96-well black-walled, clear bottom microplates (Costar) and cultivated for 2 days until cells reached confluency. Cells were washed three times with 100 μl modified Krebs-Henseleit (KH) buffer (137 mM NaCl, 2.7 mM KCl, 1.2 mM MgSO4, 1.2 mM KH2PO4, 4.2 mM NaHCO3, 1.3 mM CaCl2, 10 mM HEPES, pH 7.4) and incubated with the test compound in 50 μl KH-buffer for 15 min at 37° C. and 5% CO2. Microplates were transferred into an automated fluorescence plate reader (FlexStation®, Molecular Devices) and cellular hsYFP fluorescence was continuously recorded every 3.5 sec until end of the experiment (excitation at 485 nm, emission at 535 nm, cutoff 515 nm).

Effect on hsYFP quenching by Cl^− efflux/I^− influx mediated by ATP (50 μM, 15 min, then 330 μM ATP) | Compound | Dose dependence of inhibition of CaCC-mediated Cl^− efflux (increasing inhibitor concentrations, stimulation with 330 μM ATP) | Effect of pretreatment on basal hsYFP quenching (unactivated cells (no ATP)) | Quenching of hsYFP fluorescence after addition of Ca^2+-elevating agent (330 μM) | Concentration giving maximal quenching of hsYFP (dose-dependent stimulation of Ca^2+-dependent Cl^− transport)
significant reduction of hsYFP quenching | O=C(OC[C@H]1O[C@@H](OC(=O)c2cc(O)c(O)c(OC(=O)c3cc(O)c(O)c(O)c3)c2)[C@H](OC(=O)c2cc(O)c(O)c(OC(=O)c3cc(O)c(O)c(O)c3)c2)[C@@H](OC(=O)c2cc(O)c(O)c(OC(=O)c3cc(O)c(O)c(O)c3)c2)[C@@H]1OC(=O)c1cc(O)c(O)c(OC(=O)c2cc(O)c(O)c(O)c2)c1)c1cc(O)c(O)c(OC(=O)c2cc(O)c(O)c(O)c2)c1 [TA, tannic acid] | dose-dependent reduction of hsYFP quenching | significant reduction of basal hsYFP quenching |  | 
 | Nc1ncnc2c1ncn2[C@@H]1O[C@H](COP(=O)(O)OP(=O)(O)OP(=O)(O)O)[C@@H](O)[C@H]1O [ATP] |  |  | fast quenching of the hsYFP fluorescence without recovery | 330 µM

Reference: patent US9809853B2, “Calcium-activated chloride channel involved in human sweat formation” (BRAIN Biotechnology Research and Information Network AG, priority 2012, dated 2017)
